Laboratory results taken from ChEMBL document CHEMBL3046329, “Sensitivity to silthiofam, tebuconazole and difenoconazole of Gaeumannomyces graminis var. tritici isolates from China” (Pest Manag Sci, 2012).
Converted amounts (≈) assume the structure as drawn.

Tests used:
Gaeumannomyces tritici [1] = assay: Antifungal activity against sithiofam-resistant Gaeumannomyces graminis var. tritici isolate JS07 expressing C1 genetic cluster assessed as reduction in fungal colony diameter after 4 days; format: functional, organism-based; conditions: isolate JS07, 96 h
Gaeumannomyces tritici [2] = assay: Antifungal activity against sithiofam-resistant Gaeumannomyces graminis var. tritici isolate JS05 expressing C1 genetic cluster assessed as reduction in fungal colony diameter after 4 days; format: functional, organism-based; conditions: isolate JS05, 96 h
Gaeumannomyces tritici [3] = assay: Antifungal activity against sithiofam-sensitive Gaeumannomyces graminis var. tritici isolate JS03 expressing C1 genetic cluster assessed as reduction in fungal colony diameter after 4 days; format: functional, organism-based; conditions: isolate JS03, 96 h
Gaeumannomyces tritici [4] = assay: Antifungal activity against sithiofam-sensitive Gaeumannomyces graminis var. tritici isolate JS02 expressing C1 genetic cluster assessed as reduction in fungal colony diameter after 4 days; format: functional, organism-based; conditions: isolate JS02, 96 h
Gaeumannomyces tritici [5] = assay: Antifungal activity against sithiofam-resistant Gaeumannomyces graminis var. tritici isolate JS12 expressing C1 genetic cluster assessed as reduction in fungal colony diameter after 4 days; format: functional, organism-based; conditions: isolate JS12, 96 h
Gaeumannomyces tritici [6] = assay: Antifungal activity against sithiofam-resistant Gaeumannomyces graminis var. tritici isolate JS11 expressing C1 genetic cluster assessed as reduction in fungal colony diameter after 4 days; format: functional, organism-based; conditions: isolate JS11, 96 h
Gaeumannomyces tritici [7] = assay: Antifungal activity against sithiofam-sensitive Gaeumannomyces graminis var. tritici isolate JS10 expressing C2 genetic cluster assessed as reduction in fungal colony diameter after 4 days; format: functional, organism-based; conditions: isolate JS10, 96 h
Gaeumannomyces tritici [8] = assay: Antifungal activity against sithiofam-sensitive Gaeumannomyces graminis var. tritici isolate HN28 expressing C2 genetic cluster assessed as reduction in fungal colony diameter after 4 days; format: functional, organism-based; conditions: isolate HN28, 96 h
Gaeumannomyces tritici [9] = assay: Antifungal activity against sithiofam-resistant Gaeumannomyces graminis var. tritici isolate HN27 expressing […] genetic cluster assessed as reduction in fungal colony diameter after 4 days; format: functional, organism-based; conditions: isolate HN27, 96 h
Gaeumannomyces tritici [10] = assay: Antifungal activity against sithiofam-sensitive Gaeumannomyces graminis var. tritici isolate HN25 expressing C2 genetic cluster assessed as reduction in fungal colony diameter after 4 days; format: functional, organism-based; conditions: isolate HN25, 96 h
Gaeumannomyces tritici [11] = assay: Antifungal activity against sithiofam-sensitive Gaeumannomyces graminis var. tritici isolate HN22 expressing C2 genetic cluster assessed as reduction in fungal colony diameter after 4 days; format: functional, organism-based; conditions: isolate HN22, 96 h
Gaeumannomyces tritici [12] = assay: Antifungal activity against sithiofam-sensitive Gaeumannomyces graminis var. tritici isolate HN11 expressing C2 genetic cluster assessed as reduction in fungal colony diameter after 4 days; format: functional, organism-based; conditions: isolate HN11, HN11, 96 h
Gaeumannomyces tritici [13] = assay: Antifungal activity against sithiofam-resistant Gaeumannomyces graminis var. tritici isolate HN10 expressing C1 genetic cluster assessed as reduction in fungal colony diameter after 4 days; format: functional, organism-based; conditions: isolate HN10, 96 h
Gaeumannomyces tritici [14] = assay: Antifungal activity against sithiofam-resistant Gaeumannomyces graminis var. tritici isolate HN09 expressing C1 genetic cluster assessed as reduction in fungal colony diameter after 4 days; format: functional, organism-based; conditions: isolate HN09, 96 h
Gaeumannomyces tritici [15] = assay: Antifungal activity against sithiofam-resistant Gaeumannomyces graminis var. tritici isolate HN05 expressing C1 genetic cluster assessed as reduction in fungal colony diameter after 4 days; format: functional, organism-based; conditions: isolate HN05, 96 h
Gaeumannomyces tritici [16] = assay: Antifungal activity against sithiofam-resistant Gaeumannomyces graminis var. tritici isolate HN03 expressing C1 genetic cluster assessed as reduction in fungal colony diameter after 4 days; format: functional, organism-based; conditions: isolate HN03, 96 h
Gaeumannomyces tritici [17] = assay: Antifungal activity against sithiofam-resistant Gaeumannomyces graminis var. tritici isolate HN02 expressing C1 genetic cluster assessed as reduction in fungal colony diameter after 4 days; format: functional, organism-based; conditions: isolate HN02, 96 h
Gaeumannomyces tritici [18] = assay: Antifungal activity against sithiofam-sensitive Gaeumannomyces graminis var. tritici isolate AH08 expressing C2 genetic cluster assessed as reduction in fungal colony diameter after 4 days; format: functional, organism-based; conditions: isolate AH08, 96 h
Gaeumannomyces tritici [19] = assay: Antifungal activity against sithiofam-sensitive Gaeumannomyces graminis var. tritici isolate HN17 expressing C2 genetic cluster assessed as reduction in fungal colony diameter after 4 days; format: functional, organism-based; conditions: isolate HN17, 96 h
Gaeumannomyces tritici [20] = assay: Antifungal activity against sithiofam-sensitive Gaeumannomyces graminis var. tritici isolate HN15 expressing C2 genetic cluster assessed as reduction in fungal colony diameter after 4 days; format: functional, organism-based; conditions: isolate HN15, 96 h
Gaeumannomyces tritici [21] = assay: Antifungal activity against sithiofam-sensitive Gaeumannomyces graminis var. tritici isolate AH05 expressing C2 genetic cluster assessed as reduction in fungal colony diameter after 4 days; format: functional, organism-based; conditions: isolate AH05, 96 h
Gaeumannomyces tritici [22] = assay: Antifungal activity against sithiofam-sensitive Gaeumannomyces graminis var. tritici isolate AH04 expressing C2 genetic cluster assessed as reduction in fungal colony diameter after 4 days; format: functional, organism-based; conditions: isolate AH04, 96 h
Gaeumannomyces tritici [23] = assay: Antifungal activity against sithiofam-sensitive Gaeumannomyces graminis var. tritici isolate AH03 expressing C2 genetic cluster assessed as reduction in fungal colony diameter after 4 days; format: functional, organism-based; conditions: isolate AH03, 96 h
Gaeumannomyces tritici [24] = assay: Antifungal activity against sithiofam-resistant Gaeumannomyces graminis var. tritici isolate AH02 expressing C1 genetic cluster assessed as reduction in fungal colony diameter after 4 days; format: functional, organism-based; conditions: isolate AH02, 96 h
Gaeumannomyces tritici [25] = assay: Antifungal activity against sithiofam-sensitive Gaeumannomyces graminis var. tritici isolate SD06 expressing C2 genetic cluster assessed as reduction in fungal colony diameter after 4 days; format: functional, organism-based; conditions: isolate SD06, 96 h
Gaeumannomyces tritici [26] = assay: Antifungal activity against sithiofam-sensitive Gaeumannomyces graminis var. tritici isolate SD05 expressing C2 genetic cluster assessed as reduction in fungal colony diameter after 4 days; format: functional, organism-based; conditions: isolate SD05, 96 h
Gaeumannomyces tritici [27] = assay: Antifungal activity against sithiofam-sensitive Gaeumannomyces graminis var. tritici isolate SD04 expressing C2 genetic cluster assessed as reduction in fungal colony diameter after 4 days; format: functional, organism-based; conditions: isolate SD04, 96 h
Gaeumannomyces tritici [28] = assay: Antifungal activity against sithiofam-sensitive Gaeumannomyces graminis var. tritici isolate HN32 expressing C2 genetic cluster assessed as reduction in fungal colony diameter after 4 days; format: functional, organism-based; conditions: isolate HN32, 96 h
Gaeumannomyces tritici [29] = assay: Antifungal activity against sithiofam-sensitive Gaeumannomyces graminis var. tritici isolate HN31 expressing C3 genetic cluster assessed as reduction in fungal colony diameter after 4 days; format: functional, organism-based; conditions: isolate HN31, 96 h
Gaeumannomyces tritici [30] = assay: (§1) Antifungal activity against sithiofam-sensitive Gaeumannomyces graminis var. tritici isolate SD05 expressing C2 genetic cluster assessed as fungal induced root necrosis administered to wheat cultivar Huaimai 30 seeds grown on fungal infested soils at 0.25 g ai/kg measured after 10 days (reference value: 27.71%); format: functional
Gaeumannomyces tritici [31] = assay: as §1, with “SD04” for “SD05”, “27.34%)” for “27.71%)”; format: functional
Gaeumannomyces tritici [32] = assay: as §1, with “sithiofam-resistant” for “sithiofam-sensitive”, “AH14” for “SD05”, “C1” for “C2”, “28.16%)” for “27.71%)”; format: functional
Gaeumannomyces tritici [33] = assay: as §1, with “sithiofam-resistant” for “sithiofam-sensitive”, “AH02” for “SD05”, “C1” for “C2”, “28.16%)” for “27.71%)”; format: functional

Row | Compound | EC50 (Gaeumannomyces tritici [1]) [µg/mL] | EC50 (Gaeumannomyces tritici [2]) [µg/mL] | EC50 (Gaeumannomyces tritici [3]) [µg/mL] | EC50 (Gaeumannomyces tritici [4]) [µg/mL] | EC50 (Gaeumannomyces tritici [5]) [µg/mL] | EC50 (Gaeumannomyces tritici [6]) [µg/mL] | EC50 (Gaeumannomyces tritici [7]) [µg/mL] | EC50 (Gaeumannomyces tritici [8]) [µg/mL] | EC50 (Gaeumannomyces tritici [9]) [µg/mL] | EC50 (Gaeumannomyces tritici [10]) [µg/mL] | EC50 (Gaeumannomyces tritici [11]) [µg/mL] | EC50 (Gaeumannomyces tritici [12]) [µg/mL] | EC50 (Gaeumannomyces tritici [13]) [µg/mL] | EC50 (Gaeumannomyces tritici [14]) [µg/mL] | EC50 (Gaeumannomyces tritici [15]) [µg/mL] | EC50 (Gaeumannomyces tritici [16]) [µg/mL] | EC50 (Gaeumannomyces tritici [17]) [µg/mL] | EC50 (Gaeumannomyces tritici [18]) [µg/mL] | EC50 (Gaeumannomyces tritici [19]) [µg/mL] | EC50 (Gaeumannomyces tritici [20]) [µg/mL] | further results
1 | CC1COC(Cn2cncn2)(c2ccc(Oc3ccc(Cl)cc3)cc2Cl)O1 (stereo unspecified) [DIFENOCONAZOLE] | 0.201 (≈ 0.495 µM) | 0.213 (≈ 0.525 µM) | 0.121 (≈ 0.299 µM) | 0.28 (≈ 0.689 µM) | 0.116 (≈ 0.287 µM) | 0.164 (≈ 0.403 µM) | 0.313 (≈ 0.771 µM) | 0.0604 (≈ 0.149 µM) | 0.226 (≈ 0.557 µM) | 0.154 (≈ 0.38 µM) | 0.0553 (≈ 0.136 µM) | 0.164 (≈ 0.403 µM) | 0.375 (≈ 0.923 µM) | 0.159 (≈ 0.392 µM) | 0.261 (≈ 0.643 µM) | 0.336 (≈ 0.827 µM) | 0.236 (≈ 0.58 µM) | 0.019 (≈ 0.0468 µM) | 0.175 (≈ 0.432 µM) | 0.0884 (≈ 0.218 µM) | EC50 (Gaeumannomyces tritici [21]): 0.0683 µg/mL (≈ 0.168 µM); EC50 (Gaeumannomyces tritici [22]): 0.668 µg/mL (≈ 1.64 µM); EC50 (Gaeumannomyces tritici [23]): 0.401 µg/mL (≈ 0.988 µM); EC50 (Gaeumannomyces tritici [24]): 0.273 µg/mL (≈ 0.672 µM); EC50 (Gaeumannomyces tritici [25]): 0.18 µg/mL (≈ 0.443 µM); EC50 (Gaeumannomyces tritici [26]): 0.694 µg/mL (≈ 1.71 µM); EC50 (Gaeumannomyces tritici [27]): 0.0923 µg/mL (≈ 0.227 µM); EC50 (Gaeumannomyces tritici [28]): 0.359 µg/mL (≈ 0.885 µM); EC50 (Gaeumannomyces tritici [29]): 0.283 µg/mL (≈ 0.697 µM)
2 | C=CCNC(=O)c1c([Si](C)(C)C)sc(C)c1C [SILTHIOFAM] | 24.7 (≈ 92.2 µM) | 24.7 (≈ 92.2 µM) | 0.0016 (≈ 0.00598 µM) | 0.0013 (≈ 0.00486 µM) | 48.4 (≈ 181 µM) | 46.8 (≈ 175 µM) | 0.0009 (≈ 0.00336 µM) | 0.0005 (≈ 0.00187 µM) | 121 (≈ 451 µM) | 0.0011 (≈ 0.00411 µM) | 0.0024 (≈ 0.00897 µM) | 0.0007 (≈ 0.00262 µM) | 30.2 (≈ 113 µM) | 106 (≈ 398 µM) | 23.8 (≈ 89.1 µM) | 30 (≈ 112 µM) | 88.1 (≈ 329 µM) | 0.0013 (≈ 0.00486 µM) | 0.001 (≈ 0.00374 µM) | 0.0011 (≈ 0.00411 µM) | Activity (Gaeumannomyces tritici [30]): 3.19%; Activity (Gaeumannomyces tritici [31]): 1.02%; Activity (Gaeumannomyces tritici [32]): 28.42%; Activity (Gaeumannomyces tritici [33]): 28%; EC50 (Gaeumannomyces tritici [21]): 0.0013 µg/mL (≈ 0.00486 µM); EC50 (Gaeumannomyces tritici [22]): 0.0012 µg/mL (≈ 0.00449 µM); EC50 (Gaeumannomyces tritici [23]): 0.0003 µg/mL (≈ 0.00112 µM); EC50 (Gaeumannomyces tritici [24]): 51.8 µg/mL (≈ 194 µM); EC50 (Gaeumannomyces tritici [25]): 0.0012 µg/mL (≈ 0.00449 µM); EC50 (Gaeumannomyces tritici [26]): 0.0007 µg/mL (≈ 0.00262 µM); EC50 (Gaeumannomyces tritici [27]): 0.0002 µg/mL (≈ 0.000748 µM); EC50 (Gaeumannomyces tritici [28]): 0.0004 µg/mL (≈ 0.0015 µM); EC50 (Gaeumannomyces tritici [29]): 0.0004 µg/mL (≈ 0.0015 µM)
3 | CC(C)(C)C(O)(CCc1ccc(Cl)cc1)Cn1cncn1 (stereo unspecified) [TEBUCONAZOLE] | 0.0584 (≈ 0.19 µM) | 0.0575 (≈ 0.187 µM) | 0.0742 (≈ 0.241 µM) | 0.0547 (≈ 0.178 µM) | 0.0274 (≈ 0.089 µM) | 0.0437 (≈ 0.142 µM) | 0.103 (≈ 0.334 µM) | 0.18 (≈ 0.584 µM) | 0.0536 (≈ 0.174 µM) | 0.086 (≈ 0.279 µM) | 0.039 (≈ 0.127 µM) | 0.0562 (≈ 0.183 µM) | 0.0691 (≈ 0.224 µM) | 0.0415 (≈ 0.135 µM) | 0.0498 (≈ 0.162 µM) | 0.0724 (≈ 0.235 µM) | 0.0364 (≈ 0.118 µM) | 0.0489 (≈ 0.159 µM) | 0.0398 (≈ 0.129 µM) | 0.0516 (≈ 0.168 µM) | EC50 (Gaeumannomyces tritici [21]): 0.0902 µg/mL (≈ 0.293 µM); EC50 (Gaeumannomyces tritici [22]): 0.231 µg/mL (≈ 0.752 µM); EC50 (Gaeumannomyces tritici [23]): 0.0622 µg/mL (≈ 0.202 µM); EC50 (Gaeumannomyces tritici [24]): 0.0999 µg/mL (≈ 0.325 µM); EC50 (Gaeumannomyces tritici [25]): 0.0646 µg/mL (≈ 0.21 µM); EC50 (Gaeumannomyces tritici [26]): 0.0688 µg/mL (≈ 0.224 µM); EC50 (Gaeumannomyces tritici [27]): 0.127 µg/mL (≈ 0.412 µM); EC50 (Gaeumannomyces tritici [28]): 0.238 µg/mL (≈ 0.772 µM); EC50 (Gaeumannomyces tritici [29]): 0.111 µg/mL (≈ 0.362 µM)
